Values joined by “and” are separate entries in the source; they are usually repeats but may differ in a detail not shown here. Identical values can stand only once. Like-named read-outs stand apart in the source and are kept apart here.
What was measured:
[1] = In vitro skin flux, adhesive matrix systems, modified Franz diffusion cells; format: in vitro ADME, human; details: for Average Daily Flux of CP-336,156 over 7 Days: Example 1 matrix TSR 58 adhesive/triacetin/CP-336,156 84/10/6% w/w; for Cumulative Permeation of CP-336,156 over 24 Hours, Enhanced 1.5% w/w NaLG: Example 2 matrix Morstik 214, 3% w/w CP-336,156 tartrate salt + 1.5% w/w sodium lauroyl glycolate; for Cumulative Permeation of CP-336,156 over 24 Hours, Unenhanced: Example 2 matrix Morstik 214 water-based adhesive, 3% w/w CP-336,156 tartrate salt, no enhancer; for Enhancement Factor Q24 enhanced/Q24 unenhanced: Example 2 matrix, 1.5% w/w NaLG vs unenhanced
Description: Pressure sensitive adhesive matrix systems prepared according to the teachings of U.S. Pat. No. 5,952,000, incorporated herein by reference. First, the solids content of the adhesive solution (water or organic solvent based) was determined by placing a known weight of solution in a weighed aluminum dish and evaporating the solvents overnight in a 70. degree. C. convection oven. The solid adhesive content of the solution was calculated by dividing the adhesive solid weight after drying by the initial total solution weight. Next, a weighed quantity of adhesive solution was added to a glass bottle and the drug substance, permeation enhancer, and other excipients were weighed and added to the adhesive solution in a quantity necessary to achieve the desired dry matrix film composition. The solution containing the adhesive polymer, drug substance, and other excipients as necessary was then mixed overnight. After mixing, approximately 8 ml of the solution was dispensed on a silanized polyester release liner and film cast using a casting knife with a gap size appropriate to achieve a final dried thickness of approximately 0.05 mm. The cast film was dried in a 70° C. convection oven until all solvents had evaporated to yield a dried matrix (15 minutes for organic solvent based adhesives, 30 minutes for water emulsion based adhesives). Finally, an 0.08 mm thick occlusive polyethylene backing film was laminated onto the dried adhesive matrix, and these systems were then used to conduct in vitro skin flux experiments as described below.
(§1) In vitro skin flux studies were conducted using human cadaver epidermal membrane in modified Franz non-jacketed diffusion cells. The epidermal membrane (stratum corneum and epidermis) was separated from whole skin (epidermal membrane and dermis) by the method of Kligman and Christopher (Arch. Dermatol. 88:702 (1963)). This method involves the exposure of the full-thickness skin to water at 60.degree C. for a time period of 60 seconds. After this period, the epidermal membrane was gently peeled off the dermis and stored for later use in aluminum foil at −5° C.
Prior to each permeation experiment with a matrix system, the matrix system was cut into a circular sample of 0.7 cm^2 area and the silanized release liner was removed. The adhesive was affixed to the stratum corneum side of the thawed epidermal membrane which was then cut to an appropriate size and clamped in place between the two halves of the diffusion cell with the stratum corneum facing the donor compartment. The receiver compartment was filled with water or an aqueous solution appropriate to maintain sink conditions for the drug. All receiver solutions included 0.02% (w/w) sodium azide (NaN3) to inhibit bacterial growth. The diffusion cell was placed in a temperature controlled circulating water bath calibrated to maintain the surface temperature of the skin at 32° C. The receiver compartment was constantly stirred by a magnetic stir-bar in the receiver compartment agitated by a magnetic stirring module placed under the water bath.
(§2) The following sampling procedure was used for all dosage forms. At predetermined sampling time points, the entire contents of the receiver compartment were collected for drug quantitation and the receiver compartment was filled with fresh solution, taking care to eliminate any air bubbles at the skin/solution interface. […]

[2] = In vitro skin flux, hydroalcoholic gels (liquid reservoir), finite occluded dose, modified Franz diffusion cells; format: in vitro ADME, human; details: for Average Daily Flux of CP-336,156 over 7 Days: Example 3 gel EtOH/H2O/Gly/GMO/ML 50/15/30/2.5/2.5% v/v, CP-336,156 tartrate salt 2 mg/ml; for Average Daily Flux of CP-336,156 over 6 Days: Example 4 gel EtOH/H2O/Gly/GMO/LA 30/38/30/1/1% v/v (two-phase dispersion); for Average Daily Flux of CP-336,156 over 6 Days / Average Daily flux over 7 Days, Unenhanced 0% GMO / Average Daily flux over 7 Days, 0.03% GMO / Average Daily flux over 7 Days, 0.06% GMO / Average Daily flux over 7 Days, 0.12% GMO: CP-336,156 tartrate salt 6 mg/ml; for Average Daily flux over 7 Days, Unenhanced 0% GMO: Example 5 gel EtOH/IPA/H2O/Gly 26.25/8.75/35/30% v/v; for Average Daily flux over 7 Days, 0.03% GMO / Average Daily flux over 7 Days, 0.06% GMO / Average Daily flux over 7 Days, 0.12% GMO: Example 5 gel EtOH/IPA/H2O/Gly; for Average Daily flux over 7 Days, 0.03% GMO: 0.03% v/v glycerol monooleate; for Average Daily flux over 7 Days, 0.06% GMO: 0.06% v/v glycerol monooleate; for Average Daily flux over 7 Days, 0.12% GMO: 0.12% v/v glycerol monooleate (cloudy dispersion); for E = Enhancement Factor = Average Daily Flux from Enhanced Formulation/Average Daily Flux from Unenhanced Control: Example 5 gel
Description: Hydroalcoholic gels were prepared on a 10 ml scale as follows. Ethyl alcohol (190 proof ethanol), water, glycerin, enhancer and drug were combined in the appropriate proportions and mixed for several hours. The gelling agent (hydroxypropylcellulose) was added and the solution was mixed briefly at high shear, then mixed at low shear until a gel was formed.
as §1
Permeation experiments with hydroalcoholic gels were performed using finite occluded doses. The occluded dose is an appropriate in vitro model for the application of a transdermal patch drug delivery system containing a liquid or gel reservoir.
Occluded dosing experiments were set-up according to the following procedure. Prior to skin permeation experiments, the epidermal membrane was cut to an appropriate size and placed between the two halves of the diffusion cell with the epidermal side facing the receiver compartment. The receiver compartment was filled with an appropriate solution then the diffusion cell was placed in a circulating water bath calibrated to maintain the temperature of the skin surface at 32° C. and allowed to hydrate overnight. After hydration, a sample of the gel (75 µl) was pipetted into a cavity created by placing a polyethylene washer over the stratum corneum surface. This cavity was covered with an occlusive backing film which was clamped in place.
as §2

[3] = ovariectomized rats; cited from earlier work
[4] = postmenopausal women; cited from earlier work
[5] = female and male rats; cited from earlier work
[6] = male rats; cited from earlier work
[7] = compared with estradiol therapy; cited from earlier work
[8] = second skin source (name not given), 5 cells
[9] = third skin source (name not given), 5 cells

Oc1ccc2c(c1)CC[C@H](c1ccccc1)[C@@H]2c1ccc(OCCN2CCCC2)cc1 [CP-336,156, lasofoxifene]
Average Daily Flux of CP-336,156 over 7 Days ([1]; All Skins, Mean ± SEM): 8.6 ± 1.2 µg/cm²/day | Average Daily Flux of CP-336,156 over 7 Days ([1]; Skin 1B, 4 diffusion cells): 5.7 ± 0.8 µg/cm²/day | Average Daily Flux of CP-336,156 over 7 Days ([1]; Skin 1C, 8 diffusion cells): 9.2 ± 2.9 µg/cm²/day | Average Daily Flux of CP-336,156 over 7 Days ([1]; Skin 1D, 4 diffusion cells): 13.4 ± 7.8 µg/cm²/day | Average Daily Flux of CP-336,156 over 7 Days ([1]; Skin 1E, 4 diffusion cells): 10.2 ± 3.4 µg/cm²/day | Average Daily Flux of CP-336,156 over 7 Days ([1]; Skin 1F, 4 diffusion cells): 5.1 ± 1.1 µg/cm²/day | Average Daily Flux of CP-336,156 over 7 Days ([1]; Skin 1G, 4 diffusion cells): 11.4 ± 2.4 µg/cm²/day | Average Daily Flux of CP-336,156 over 7 Days ([1]; Skin IA, 7 diffusion cells): 5.5 ± 3.4 µg/cm²/day | Cumulative Permeation of CP-336,156 over 24 Hours, Enhanced 1.5% w/w NaLG ([1]; All Skins Mean ± SEM): 1.42 ± 1.05 μg/cm^2/24 h | Cumulative Permeation of CP-336,156 over 24 Hours, Enhanced 1.5% w/w NaLG ([1]; Skin 2A, 5 cells): 0.30 ± 0.12 μg/cm^2/24 h | Cumulative Permeation of CP-336,156 over 24 Hours, Enhanced 1.5% w/w NaLG [1, 8]: 3.51 ± 0.93 μg/cm^2/24 h | Cumulative Permeation of CP-336,156 over 24 Hours, Enhanced 1.5% w/w NaLG [1, 9]: 0.46 ± 0.16 μg/cm^2/24 h | Cumulative Permeation of CP-336,156 over 24 Hours, Unenhanced ([1]; All Skins Mean ± SEM): 0.99 ± 0.85 μg/cm^2/24 h | Cumulative Permeation of CP-336,156 over 24 Hours, Unenhanced ([1]; Skin 2A, 5 cells): 0.13 ± 0.09 μg/cm^2/24 h | Cumulative Permeation of CP-336,156 over 24 Hours, Unenhanced [1, 8]: 2.70 ± 1.08 μg/cm^2/24 h | Cumulative Permeation of CP-336,156 over 24 Hours, Unenhanced [1, 9]: 0.15 ± 0.09 μg/cm^2/24 h | Enhancement Factor Q24 enhanced/Q24 unenhanced ([1]; All Skins Mean ± SEM): 2.2 and 2.21 ± 0.51 | Enhancement Factor Q24 enhanced/Q24 unenhanced ([1]; Skin 2A): 2.28 | Enhancement Factor Q24 enhanced/Q24 unenhanced ([1]; second skin source (name not given)): 1.30 | Enhancement Factor Q24 enhanced/Q24 unenhanced ([1]; third skin source (name not given)): 3.06 | Average Daily Flux of CP-336,156 over 7 Days ([2]; All Skins, Mean ± SEM): 21.6 ± 2.3 ug/cm^2/day | Average Daily Flux of CP-336,156 over 7 Days ([2]; Skin 3A, 8 cells): 174 ± 7.7 ug/cm^2/day | Average Daily Flux of CP-336,156 over 7 Days ([2]; Skin 3B, 4 cells): 15.3 ± 8.7 ug/cm^2/day | Average Daily Flux of CP-336,156 over 7 Days ([2]; Skin 3C, 8 cells): 23.9 ± 11.0 ug/cm^2/day | Average Daily Flux of CP-336,156 over 7 Days ([2]; Skin 3D, 4 cells): 27.9 ± 2.2 ug/cm^2/day | Average Daily Flux of CP-336,156 over 7 Days ([2]; Skin 3E, 4 cells): 21.2 ± 9.9 ug/cm^2/day | Average Daily Flux of CP-336,156 over 7 Days ([2]; Skin 3F, 4 cells): 15.4 ± 7.2 ug/cm^2/day | Average Daily Flux of CP-336,156 over 7 Days ([2]; Skin 3G, 4 cells): 30.3 ± 4.9 ug/cm^2/day | Average Daily Flux of CP-336,156 over 6 Days ([2]; All Skins, Mean ± SEM): 38.3 ± 3.3 ug/cm^2/day | Average Daily Flux of CP-336,156 over 6 Days ([2]; Skin 4A, 5 cells): 42.4 ± 15.5 ug/cm^2/day | Average Daily Flux of CP-336,156 over 6 Days ([2]; Skin 4B, 5 cells): 36.3 ± 5.2 ug/cm^2/day | Average Daily Flux of CP-336,156 over 6 Days ([2]; Skin 4C, 5 cells): 36.2 ± 14.9 ug/cm^2/day | Average Daily flux over 7 Days, Unenhanced 0% GMO ([2]; All Skins): 11.8 ug/cm^2/24 h | Average Daily flux over 7 Days, Unenhanced 0% GMO ([2]; Skin 5A, n = 2-5 cells): 6.4 ug/cm^2/24 h | Average Daily flux over 7 Days, Unenhanced 0% GMO ([2]; Skin 5B, n = 2-5 cells): 17.4 ug/cm^2/24 h | Average Daily flux over 7 Days, Unenhanced 0% GMO ([2]; Skin 5C, n = 2-5 cells): 11.6 ug/cm^2/24 h | Average Daily flux over 7 Days, 0.03% GMO ([2]; All Skins): 33.0 ug/cm^2/24 h | Average Daily flux over 7 Days, 0.03% GMO ([2]; Skin 5A, n = 2-5 cells): 7.1 ug/cm^2/24 h | Average Daily flux over 7 Days, 0.03% GMO ([2]; Skin 5B, n = 2-5 cells): 69.5 ug/cm^2/24 h | Average Daily flux over 7 Days, 0.03% GMO ([2]; Skin 5C, n = 2-5 cells): 22.4 ug/cm^2/24 h | Average Daily flux over 7 Days, 0.06% GMO ([2]; All Skins): 35.6 ug/cm^2/24 h | Average Daily flux over 7 Days, 0.06% GMO ([2]; Skin 5A, n = 2-5 cells): 11.6 ug/cm^2/24 h | Average Daily flux over 7 Days, 0.06% GMO ([2]; Skin 5B, n = 2-5 cells): 74.9 ug/cm^2/24 h | Average Daily flux over 7 Days, 0.06% GMO ([2]; Skin 5C, n = 2-5 cells): 20.3 ug/cm^2/24 h | Average Daily flux over 7 Days, 0.12% GMO ([2]; All Skins): 41.8 Ug/cm^2/24 h | Average Daily flux over 7 Days, 0.12% GMO ([2]; Skin 5A, n = 2-5 cells): 16.8 Ug/cm^2/24 h | Average Daily flux over 7 Days, 0.12% GMO ([2]; Skin 5B, n = 2-5 cells): 85.2 Ug/cm^2/24 h | Average Daily flux over 7 Days, 0.12% GMO ([2]; Skin 5C, n = 2-5 cells): 23.6 Ug/cm^2/24 h | E = Enhancement Factor = Average Daily Flux from Enhanced Formulation/Average Daily Flux from Unenhanced Control ([2]; 0.03% GMO vs 0% GMO, All Skins): 2.34 ± 0.37 | E = Enhancement Factor = Average Daily Flux from Enhanced Formulation/Average Daily Flux from Unenhanced Control ([2]; 0.03% GMO vs 0% GMO, Skin 5A): 1.12 | E = Enhancement Factor = Average Daily Flux from Enhanced Formulation/Average Daily Flux from Unenhanced Control ([2]; 0.03% GMO vs 0% GMO, Skin 5B): 3.99 | E = Enhancement Factor = Average Daily Flux from Enhanced Formulation/Average Daily Flux from Unenhanced Control ([2]; 0.03% GMO vs 0% GMO, Skin 5C): 1.93 | E = Enhancement Factor = Average Daily Flux from Enhanced Formulation/Average Daily Flux from Unenhanced Control ([2]; 0.06% GMO vs 0% GMO, All Skins): 2.62 ± 0.43 | E = Enhancement Factor = Average Daily Flux from Enhanced Formulation/Average Daily Flux from Unenhanced Control ([2]; 0.06% GMO vs 0% GMO, Skin 5A): 1.81 | E = Enhancement Factor = Average Daily Flux from Enhanced Formulation/Average Daily Flux from Unenhanced Control ([2]; 0.06% GMO vs 0% GMO, Skin 5B): 4.30 | E = Enhancement Factor = Average Daily Flux from Enhanced Formulation/Average Daily Flux from Unenhanced Control ([2]; 0.06% GMO vs 0% GMO, Skin 5C): 1.74 | E = Enhancement Factor = Average Daily Flux from Enhanced Formulation/Average Daily Flux from Unenhanced Control ([2]; 0.12% GMO vs 0% GMO, All Skins): 3.18 ± .36 | E = Enhancement Factor = Average Daily Flux from Enhanced Formulation/Average Daily Flux from Unenhanced Control ([2]; 0.12% GMO vs 0% GMO, Skin 5A): 2.62 | E = Enhancement Factor = Average Daily Flux from Enhanced Formulation/Average Daily Flux from Unenhanced Control ([2]; 0.12% GMO vs 0% GMO, Skin 5B): 4.89 | E = Enhancement Factor = Average Daily Flux from Enhanced Formulation/Average Daily Flux from Unenhanced Control ([2]; 0.12% GMO vs 0% GMO, Skin 5C): 2.03 | bone loss [3]: prevent bone loss | bone loss [4]: prevent bone loss | total serum cholesterol [5]: decreased | effect on prostate [6]: did not affect prostate | uterine-stimulating effects [7]: without the uterine-stimulating effects
